In article PMC9211397, “High-Throughput Screening Platform To Identify Inhibitors of Protein Synthesis with Potential for the Treatment of Malaria” (Antimicrobial Agents and Chemotherapy, 2022):
Several values for one entry are separate records, joined by “and”; a condition that tells them apart may be missing. Equal values may be shown once. Read-outs that look alike come from different tables or passages of the source.

How the values were obtained:
[1] = test system: P. falciparum translation (P. falciparum lysate); experiment: P. falciparum in vitro translation (PfIVT) assay, lysate-based, luciferase reporter; type: biochemical, Plasmodium falciparum; details: for IC50: 8-point, weighted mean ± SD of two technical replicates, read-out: IC50 value (μM) PfIVT; for PfIVT inhibition at 30 μM (%): single-point screen
Description: (§1) Our P. falciparum in vitro translation (PfIVT) assay is built upon previously established assays ([14], [17]) and is summarized in Fig. 1A. In this assay, successful reconstitution of Plasmodium protein translation is reported via synthesis of a luciferase reporter. For PfIVT, two independent untranslated regions (UTRs), previously shown to promote strong levels of translation ([17]), were introduced upstream and downstream of the luciferase. The 5′ UTR from P. falciparum histidine-rich protein 3 (PfHrp3) ([18]) was introduced upstream of the reporter gene, and the 3′ UTR from P. falciparum histidine-rich protein 2 (PfHrp2) gene ([19]) was introduced downstream. For the reporter construct to support our complementary human IVT assay (HsIVT), the 5′ UTR was replaced with an internal ribosome entry site (IRES) from encephalomyocarditis virus (EMCV) ([20]) and the 3′ UTR was replaced with a poly(A) tail ([21]). […] Finally, a 30-bp poly(A) tail, present within the vector and downstream of the luciferase gene, was inserted to enhance mRNA stability ([21]).
(§2) Translationally active P. falciparum or human embryonic kidney (HEK) 293F lysates were supplemented with accessory, helper, amino acid, and energy regeneration solutions (see Materials and Methods for details). In vitro translation reactions were initiated by the addition of purified mRNA to each reaction well. Using this basic assay format, a number of parameters were assessed and optimized, namely, assay temperature, time, mRNA concentration, and reaction volume (summarized in Fig. S2 in the supplemental material). In addition, we compared the luminescence signal of the CBG firefly luciferase with CBG99, derived from the click beetle […] ([18]).
3D7 parasites were synchronized following two rounds of treatment with D-sorbitol (5%), as previously described ([40]). The hematocrit was reduced from 5% (for standard culture) to 1.5 to 2% and cultures were transferred into HYPERflasks (Corning). Fresh medium was added once or twice daily. […] Harvested red blood cells (infected) were lysed by incubation in 0.1% (wt/vol) saponin on ice for 10 min with gentle agitation. Free parasites were harvested by centrifugation (2,800 × g, 10 min, 4°C) and washed 3 times in wash buffer (WB; 100 mM potassium acetate, 2.5 mM magnesium acetate, 45 mM HEPES [pH 7.4], 250 mM sucrose, 2 mM dithiothreitol, and 15 μM leupeptin) to remove lysed red blood cell debris. The resulting pellet was resuspended in 1 volume of WB supplemented with cOmplete EDTA-free protease inhibitor cocktail (Roche; 1 tablet/20 mL) and human RNase A inhibitor (Sigma; 5 U/mL). Parasite lysis was achieved by nitrogen cavitation using a prechilled 45-mL Parr cell disruption vessel (1,500 lb/in^2, 60 min, 4°C). To clarify the lysate, it was centrifuged (10,000 × g, 15 min, 4°C), and the supernatant was collected, transferred into fresh tubes, and centrifuged (30,000 × g, 15 min, 4°C). As a quality assurance step for each lysate, the RNA content of the resulting supernatant was determined using a NanoDrop spectrophotometer (Shimadzu). Supernatants with RNA levels of >250 ng/μL were aliquoted (100 μL), flash frozen in liquid nitrogen, and stored at −80°C.

[2] = target: human translation (HEK 293F lysate); experiment: Human in vitro translation (HsIVT) assay, HEK 293F lysate, luciferase reporter; type: biochemical; details: weighted mean ± SD of two technical replicates, read-out: IC50 value (μM) HsIVT
Description: as §1, §2
FreeStyle human embryonic kidney (HEK) 293F cells (Thermo Fisher Scientific) were grown in 500-mL polycarbonate Erlenmeyer vented flasks (Corning) containing FreeStyle 293 expression medium (Life Technologies) upon reaching a density of approximately 2 × 10^6. Cells were then centrifuged at 1,000 × g for 10 min at 4°C, the medium was discarded, and the resulting pellet was washed once in buffer II containing 20 U of human placental RNase inhibitor (Sigma-Aldrich) and cOmplete EDTA-free inhibitor cocktail (Roche) before being centrifuged at 2,800 × g for 10 min. Clarified HEK cell lysate was obtained in the same way as described for P. falciparum lysate.
PfIVT and HsIVT reactions (5 μL final volume) were performed in 384-well plates (Corning) containing 50% lysate from cells (either P. falciparum or HEK 293F), 10% amino acid solution (final concentration of 400 μM for each amino acid in 60 mM KOH; biotechrabbit), 10% energy recovery solution (final assay concentrations of 40 mM HEPES [pH 7.4], 1.5 mM ATP, 0.15 mM GTP, […] creatine phosphate, and 40 U/mL creatine phosphokinase), 10% helper solution (final assay concentrations of 200 μM cystine, 2% polyethylene glycol 3000 [PEG 3000], 1 mM spermidine, 0.5 mM folinic acid, and 15 μM leupeptin), 10% supplemental salt solution (22.5 mM HEPES [pH 7.4], 50 mM potassium acetate, 1 mM magnesium acetate, 1 mM DTT, 1 U/mL human placental RNase inhibitor, 0.1 mM leupeptin), and 10% cbg99 luciferase mRNA (3,000 ng/mL). A master mix solution containing all components was prepared on ice prior to assays, and 5 μL was dispensed into wells using an automated Integra VIAFLO 16-channel 12.5-μL pipette.

CBG99 luciferase = CBG99 luciferase (Pyrophorus plagiophthalamus, UniProt Q7M4K1); experiment: Luciferase counterscreen (false-positive counterscreen); type: biochemical, click beetle
Protocol: Hits identified in our primary assay screen were assessed for their potential to interfere with the cbg99 luciferase reporter. For this counterscreen, the master mix containing all the components required for translation (as described above) was incubated for 210 min at 32°C, resulting in the in vitro translation of cbg99 luciferase. The produced luciferase was then incubated with test compounds for 5 min prior to the addition of luciferase reaction buffer. […] Hits from the primary screen were assessed as luciferase inhibitors in 8-point dose-dependent assays ranging from 30 μM to 13.7 nM (1:3 dilutions). Levels of luciferase inhibition were determined relative to the positive control.

[3] = Pandemic Box hits; weighted mean ± SD of two technical replicates; read-out: IC50 value (μM) Counterscreen
[4] = Pathogen Box hits; weighted mean ± SD of two technical replicates; read-out: IC50 value (μM) Counterscreen

Chain of CBG99 luciferase (Q7M4K1 entry or part of it): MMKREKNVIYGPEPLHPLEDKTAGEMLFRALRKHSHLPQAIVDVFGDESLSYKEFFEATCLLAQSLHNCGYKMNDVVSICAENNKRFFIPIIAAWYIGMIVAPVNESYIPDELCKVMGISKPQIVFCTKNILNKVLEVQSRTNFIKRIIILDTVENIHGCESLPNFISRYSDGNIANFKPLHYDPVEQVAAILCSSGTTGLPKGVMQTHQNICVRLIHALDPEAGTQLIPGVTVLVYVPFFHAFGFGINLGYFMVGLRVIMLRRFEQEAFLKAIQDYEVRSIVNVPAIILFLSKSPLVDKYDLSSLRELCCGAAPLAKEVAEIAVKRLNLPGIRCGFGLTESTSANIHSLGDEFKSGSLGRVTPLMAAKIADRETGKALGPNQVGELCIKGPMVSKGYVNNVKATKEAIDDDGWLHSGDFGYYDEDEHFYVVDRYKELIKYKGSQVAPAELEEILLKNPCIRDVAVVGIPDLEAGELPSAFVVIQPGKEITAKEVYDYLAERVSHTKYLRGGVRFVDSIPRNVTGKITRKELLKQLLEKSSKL

Structure (SMILES) | activity against PfIVT at 100 μM [1] | IC50 ([1]; Pandemic Box hits) | PfIVT inhibition at 30 μM (%) ([1]; Pandemic Box) | IC50 ([2]; Pandemic Box hits) | IC50 (CBG99 luciferase; [3]) | IC50 ([1]; Pathogen Box hits) | PfIVT inhibition at 30 μM (%) ([1]; Pathogen Box) | IC50 ([2]; Pathogen Box hits) | IC50 (CBG99 luciferase; [4]) | IC50 (CBG99 luciferase; read-out: IC50 value (μM) Counterscreen; Pandemic Box hits; weighted mean ± SD of two technical replicates) | IC50 (CBG99 luciferase; read-out: IC50 value (μM) Counterscreen; Pathogen Box hits; weighted mean ± SD of two technical replicates)
C[C@H]1c2cccc(O)c2C(=O)C2=C(O)[C@]3(O)C(=O)C(C(N)=O)=C(O)[C@@H](N(C)C)[C@@H]3[C@@H](O)[C@@H]21 [doxycycline, reference compound] | not active | – | – | – | – | – | – | – | – | – | –
Cn1cc(NC(=O)c2cc(NC(=O)c3ccc(/C=C/c4cnc5ccccc5c4)cc3)cn2C)cc1C(=O)NCCN1CCOCC1 [MMV1634391] | – | 17 ± 0.6 µM | 52.4% | 1.1 ± 0.01 µM | > 30 µM | – | – | – | – | – | –
CCOc1ccc(C(=O)NCCc2ccccc2)cc1 [MMV124656] | – | 14 ± 0.9 µM | 72.6% | 17 ± 0.16 µM | 3.8 ± 0.08 µM | – | – | – | – | – | –
COc1cc(C2=NCCN2)ccc1-c1cn(-c2cccc(C3=NCCN3)c2)nn1 [MMV688407] | – | – | – | – | – | 6 ± 0.09 µM | 98.7% | 5.2 ± 0.02 µM | > 30 µM | – | –
COc1ccc(C2=NCCN2)cc1-c1cn(-c2cccc(C3=NCCN3)c2)nn1 [MMV688547] | – | – | – | – | – | 1.8 ± 0.07 µM | 96.7% | 2.7 ± 0.02 µM | > 30 µM | – | –
COc1cc(C2=NCCN2)cc2cc(-c3ccc(C4=NCCN4)cc3)oc12 [MMV688362] | – | – | – | – | – | 2.8 ± 0.08 µM | 93.5% | 5.6 ± 0.04 µM | > 30 µM | – | –
O=C(Nc1nnc(-c2ccccc2)o1)c1ccc(F)cc1 [MMV1578578] | – | 3.7 ± 0.07 µM | 74.6% | 10 ± 0.12 µM | 1.3 ± 0.08 µM | – | – | – | – | – | –
Cc1c[nH]c(CCNC(=O)c2cc(-c3ccc(Cl)cc3)cs2)n1 [MMV676350] | – | – | – | – | – | 16 ± 0.8 µM | 65.1% | 6.7 ± 0.13 µM | > 30 µM | – | –
CC(Cc1ccccc1)C(=O)Nc1ccc(Cl)cc1C(=O)O (stereo not shown) [MMV1579781] | – | 8.1 ± 0.09 µM | 72.4% | > 30 µM | 0.5 ± 0.08 µM | – | – | – | – | – | –
COc1cc(C2=NCCN2)ccc1-n1cc(-c2cccc(C3=NCCN3)c2)nn1 [MMV688474] | – | – | – | – | – | 16 ± 0.9 µM | 78.4% | 14 ± 0.07 µM | > 30 µM | – | –
COc1ccc2nc(C)cc(OCC(=O)Nc3ccccc3OC)c2c1 [MMV687188] | – | – | – | – | – | – | 64.9% | > 30 µM | > 30 µM | – | –
Cc1oncc1C(=O)Nc1ccc(C(F)(F)F)cc1 [MMV003291] | – | 2 ± 0.07 µM | 52.9% | > 30 µM | 0.5 ± 0.08 µM | – | – | – | – | – | –
Cc1ccc(C(=O)Nc2ccc(S(=O)(=O)O)c3cc(S(=O)(=O)O)cc(S(=O)(=O)O)c23)cc1NC(=O)c1cccc(NC(=O)Nc2cccc(C(=O)Nc3cc(C(=O)Nc4ccc(S(=O)(=O)O)c5cc(S(=O)(=O)O)cc(S(=O)(=O)O)c45)ccc3C)c2)c1 [MMV637953] | – | – | – | – | – | 3.1 ± 0.07 µM | 78.7% | > 30 µM | > 30 µM | – | –
C(=C\c1nc2ccccc2[nH]1)/c1ccc2c(c1)OCO2 [MMV1582495] | – | 0.6 ± 0.07 µM | 89.9% | 3.1 ± 0.04 µM | 1.7 ± 0.08 µM | – | – | – | – | – | –
CCC[C@@H]1C[C@@H](C(=O)N[C@@H]([C@H]2O[C@H](SC)[C@H](O)[C@@H](O)[C@H]2O)[C@H](C)Cl)N(C)C1 [clindamycin, reference compound] | not active | – | – | – | – | – | – | – | – | – | –
CC(=O)Oc1ccccc1C(=O)Nc1ncc([N+](=O)[O-])s1 [MMV688991, nitazoxanide, reference compound] | – | 0.02 ± 0.007 µM | 98.3% | 0.04 ± 0.0003 µM | – | 0.02 ± 0.008 µM | 97.0% | 0.04 ± 0.0003 µM | – | 0.04 ± 0.008 µM | 0.02 ± 0.008 µM
O=C(Nc1nc(-c2ccccn2)cs1)c1cncn1-c1ccccc1 [MMV676512] | – | – | – | – | – | > 30 µM | 54.2% | 22 ± 0.46 µM | > 30 µM | – | –
NC(=O)c1cc(Br)ccc1OCCOc1ccccc1 [MMV687243] | – | – | – | – | – | 2.2 ± 0.08 µM | 82.5% | 13 ± 0.2 µM | 0.9 ± 0.09 µM | – | –
CCCCOC(=O)Nc1cc2[nH]c(C3CCCCC3)nc2cc1N1CCCC1 [MMV687730] | – | – | – | – | – | 3.9 ± 0.8 µM | 72.4% | > 30 µM | > 30 µM | – | –
O=C(O)c1cc(-c2ccc(Br)cc2)nc2ccc(Cl)cc12 [MMV247764] | – | 14 ± 0.7 µM | 63.2% | 23 ± 0.2 µM | 3.2 ± 0.06 µM | – | – | – | – | – | –
NC[C@H]1O[C@H](O[C@H]2[C@H](O)[C@@H](O[C@H]3O[C@H](CO)[C@@H](O)[C@H](N)[C@H]3O)[C@H](N)C[C@@H]2N)[C@H](N)C[C@@H]1O [MMV002459] | – | 29 µM and > 30 µM | 87.3% | 22 ± 0.3 µM | > 30 µM | – | – | – | – | – | –
CC(C)Nc1ncnc2c1cnn2-c1ccc(Cl)cc1 [MMV108465] | – | 17 ± 0.8 µM | 62.6% | 23 ± 0.11 µM | 7.6 ± 0.5 µM | – | – | – | – | – | –
N=C(N)Nc1ccc(-c2ccc(-c3ccc(N=C(N)N)c(Cl)c3)o2)cc1Cl [MMV688271] | – | – | – | – | – | 18 ± 0.9 µM | 65.7% | 13 ± 0.16 µM | > 30 µM | – | –
COc1ccc(C(=N)N)cc1-c1cn(-c2ccc(C(=N)N)cc2)nn1 [MMV675998] | – | – | – | – | – | 13 ± 0.9 µM | 68.9% | 18 ± 0.13 µM | > 30 µM | – | –
Clc1cccc(-c2nnc(-c3ccccc3)o2)c1 [MMV141011] | – | > 30 µM | 51.8% | > 30 µM | 10 ± 0.8 µM | – | – | – | – | – | –
